In patent US10766917B2, “Nucleotides for the treatment of cancer” (IDENIX PHARMACEUTICALS LLC, priority 2015, dated 2020):

Tests used:
Assay type in all cases: cell-based
A498 = assay: In vitro inhibition, CellTiter-Glo (CTG) assay; settings: 72 hr exposure
Method: (§1) Cells were grown in RPMI-1640 supplemented with L-Glutamine and 10% FBS of the following cell lines:
(§2) CCRF-CEM; HL-60; KG-1; CFPAC-1; MiaPACA-2; BxPC-3; HepG2; MDA-MB-231; HCT-116; A498; and NCI-H69
(§3) 18, 96 well plates of each cell line were seeded with the optimized number of cells per well in a total volume of 50 μper well. The plates were left overnight. Plate wells were seeded with 100 pt media for media control. The following day, cells were exposed to test compounds as described below. At the same time as drug exposure, a CTG assay was conducted on the 18th plate for the 0 hr count.
(§4) The compounds were added to cells and medium already on the plate to give desired final concentrations. 50 μL media were added to cell control wells, and 50 μL of mix added to vehicle control wells. 10 μM Doxorubicin was added to appropriate wells as control. Cells exposed to test compound were incubated at 37° C. for 72 hr followed by a CTG assay.
(§5) At the end of the 72 hr exposure period, plates were removed for a CellTiter-Glo (CTG) assay from a 37° C., 5% CO2 incubator and placed on the bench at room temperature for 30 mins. 100 μL of CellTiter-Glo reagent was added and mixed for 2 mins, followed by a further 10 min incubation at room temperature. Luminescence was recorded using Synergy 4.0.

BxPC-3 = assay: In vitro inhibition, CellTiter-Glo (CTG) assay; settings: 72 hr exposure
Method: as §1, §2, §3, §4, §5

CFPAC-1 = assay: In vitro inhibition, CellTiter-Glo (CTG) assay; settings: 72 hr exposure
Method: as §1, §2, §3, §4, §5

HCT-116 = assay: In vitro inhibition, CellTiter-Glo (CTG) assay; settings: 72 hr exposure
Method: as §1, §2, §3, §4, §5

HepG2 = assay: In vitro inhibition, CellTiter-Glo (CTG) assay; settings: 72 hr exposure
Method: as §1, §2, §3, §4, §5

KG-1 = assay: In vitro inhibition, CellTiter-Glo (CTG) assay; settings: Homo sapiens
Method: as §1, §2, §3, §4, §5

MDA-MB-231 = assay: In vitro inhibition, CellTiter-Glo (CTG) assay
Method: as §1, §2, §3, §4, §5

MiaPACA-2 = assay: In vitro inhibition, CellTiter-Glo (CTG) assay; settings: 72 hr exposure
Method: as §1, §2, §3, §4, §5

NCI-H69 = assay: In vitro inhibition, CellTiter-Glo (CTG) assay
Method: as §1, §2, §3, §4, §5

CCRF-CEM = assay: In vitro inhibition, CellTiter-Glo (CTG) assay; settings: Homo sapiens, CCRF-CEM, 72 hr exposure
Method: as §1, §2, §3, §4, §5

HL-60 = assay: In vitro inhibition, CellTiter-Glo (CTG) assay; settings: Homo sapiens, HL-60, 72 hr exposure
Method: as §1, §2, §3, §4, §5

HuH-1 cells = assay: In vitro inhibition of HuH-1, MTT assay; settings: Homo sapiens, HuH-1, 72 h, read-out: HuH-1: relative IC50
Method: HuH-1 cells were purchased from JCRB and tested with the following method:
Cells are suspended at a specific density in a specific culture medium (see table in 2.Cell lines).
Then, 100 μl of cell suspension are plated per well in 96-well plates.
Compounds or negative controls (DMSO) are added to the cells (100 μl of a compound solution in its specific medium with a final concentration of 0.15% DMSO).
Each compound concentration is tested in duplicate (6 concentrations per compound).
Cells are incubated at 37° C. for 72 h without treating again.
SDS is added to control wells (final concentration of 1%) and kept for 15 min at 37° C. SDS 1% represents the positive control of proliferation inhibition.
Cell supernatant is removed and 100 μl of a MTT (3-[4.5-dimethylthiazol-2-yl]-2.5-diphenyltetrazolium bromide) solution in fresh medium are added per well (MTT final concentration of 0.5 mg/ml) and incubated for 4 h at 37° C.
MTT reaction is stopped and homogenized by adding 100 μl/well of SDS 10%, 0.01M HCl and incubated for 2 h at 37° C.
Absorbance is measured at 570 nm.

[1] = Homo sapiens, MDA-MB-231, 72 hr exposure
[2] = Homo sapiens, NCI-H69, 72 h, 72 hr exposure

| SMILES | IC50 (BxPC-3) [µM] | IC50 (HCT-116) [µM] | IC50 (MDA-MB-231; [1]) [µM] | IC50 (HepG2; Homo sapiens, HepG2, 72 h) [µM] | IC50 (MiaPACA-2; Homo sapiens, MIA PaCa-2, 72 h) [µM] | IC50 (HuH-1 cells) [µM] | IC50 (A498; Homo sapiens, A498, 72 h) [µM] | IC50 (CFPAC-1; Homo sapiens, CFPAC-1, 72 h) [µM] | further results |
| --- | --- | --- | --- | --- | --- | --- | --- | --- | --- |
| CC(C)OP1(=O)OC[C@H]2O[C@@H](n3ccc(N)nc3=O)C(F)(F)[C@@H]2O1 (single isomer, unassigned) [102 (diastereomer 2)] | 1 to 10 | 1 to 10 | 10 to 100 |  |  |  | 10 to 100 |  | IC50 (CFPAC-1): 1 to 10 µM; IC50 (HepG2): < 1 µM; IC50 (KG-1; KG-1, 72 h, 72 hr exposure): < 1 µM; IC50 (MiaPACA-2): 1 to 10 µM; IC50 (NCI-H69; [2]): 10 to 100 µM |
| CC(C)OC(=O)[C@H](C)NP1(=O)OC[C@H]2O[C@@H](n3ccc(N)nc3=O)C(F)(F)[C@@H]2O1 (single isomer, unassigned) [103 (diastereomer 1)] | 10 to 100 |  | 10 to 100 | < 1 | 1 to 10 |  | 10 to 100 | < 1 | IC50 (CCRF-CEM): < 1 µM; IC50 (HCT-116; Homo sapiens, HCT-116, 72 h): 1 to 10 µM; IC50 (HL-60): < 1 µM; IC50 (KG-1; KG-1, 72 hr exposure): < 1 µM; IC50 (NCI-H69; Homo sapiens, NCI-H69, 72 hr exposure): 10 to 100 µM |
| CC(C)OP1(=O)OC[C@H]2O[C@@H](n3ccc(N)nc3=O)C(F)(F)[C@@H]2O1 (single isomer, unassigned) [Compound 102 (diastereomer 1)] | 10 to 100 | 10 to 100 |  | 1 to 10 | 1 to 10 | ≥ 0.3 |  | 1 to 10 | IC50 (A498): 10 to 100 µM; IC50 (MDA-MB-231; 72 hr exposure): 10 to 100 µM; IC50 (NCI-H69; 72 hr exposure): 10 to 100 µM |
| CC(C)OC(=O)[C@H](C)CCO[P@]1(=O)OC[C@H]2O[C@@H](n3ccc(N)nc3=O)C(F)(F)[C@@H]2O1 (single isomer, unassigned) [Compound 120 Diastereoisomer 1] |  |  |  |  |  | < 0.3 |  |  |  |
| CCOC(=O)[C@@H](C)CCO[P@@]1(=O)OC[C@H]2O[C@@H](n3ccc(N)nc3=O)C(F)(F)[C@@H]2O1 (single isomer, unassigned) [Compound 122 Diastereoisomer 1] |  |  |  |  |  | < 0.3 |  |  |  |
| CCOC(=O)[C@@H](C)CCO[P@]1(=O)OC[C@H]2O[C@@H](n3ccc(N)nc3=O)C(F)(F)[C@@H]2O1 (single isomer, unassigned) [Compound 122 Diastereoisomer 2] |  |  |  |  |  | < 0.3 |  |  |  |

The next lines start with results.

| IC50 (BxPC-3) [µM] | IC50 (HCT-116) [µM] | IC50 (MDA-MB-231; [1]) [µM] | IC50 (HepG2; Homo sapiens, HepG2, 72 h) [µM] | IC50 (MiaPACA-2; Homo sapiens, MIA PaCa-2, 72 h) [µM] | IC50 (HuH-1 cells) [µM] | SMILES | IC50 (A498; Homo sapiens, A498, 72 h) [µM] | IC50 (CFPAC-1; Homo sapiens, CFPAC-1, 72 h) [µM] | further results |
| --- | --- | --- | --- | --- | --- | --- | --- | --- | --- |
|  |  | 10 to 100 | 10 to 100 | 10 to 100 |  | CCCC(CCC)C(=O)Nc1ccn([C@@H]2O[C@@H]3COP(=O)(N[C@H](C)C(=O)OC(C)C)O[C@H]3C2(F)F)c(=O)n1 (single isomer, unassigned) [116 (diastereomer 1)] | 10 to 100 | 10 to 100 | IC50 (BxPC-3; Homo sapiens, BXPC-3, 72 h): 10 to 100 µM; IC50 (HCT-116; Homo sapiens, HCT-116, 72 h): 10 to 100 µM; IC50 (NCI-H69; [2]): 10 to 100 µM |
| 10 to 100 | 10 to 100 |  |  |  |  | CCCC(CCC)C(=O)Nc1ccn([C@@H]2O[C@@H]3COP(=O)(N[C@H](C)C(=O)OC(C)C)O[C@H]3C2(F)F)c(=O)n1 (single isomer, unassigned) [116 (diastereomer 2)] |  |  | IC50 (A498): 10 to 100 µM; IC50 (CFPAC-1): 10 to 100 µM; IC50 (HepG2): 10 to 100 µM; IC50 (MDA-MB-231; 72 hr exposure): 10 to 100 µM; IC50 (MiaPACA-2): 10 to 100 µM; IC50 (NCI-H69; 72 hr exposure): 10 to 100 µM |
|  |  |  |  |  | < 0.3 | CC(C)OC(=O)[C@@H](C)CCO[P@]1(=O)OC[C@H]2O[C@@H](n3ccc(N)nc3=O)C(F)(F)[C@@H]2O1 (single isomer, unassigned) [Compound 121 Diastereoisomer 1] |  |  |  |
|  |  |  |  |  | < 0.3 | CC(C)OC(=O)[C@@H](C)CCO[P@@]1(=O)OC[C@H]2O[C@@H](n3ccc(N)nc3=O)C(F)(F)[C@@H]2O1 (single isomer, unassigned) [Compound 121 Diastereoisomer 2] |  |  |  |
